Measurements as given in patent publication US12269803B2, “Krüppel-like factor 15 (KLF15) small molecule agonists in kidney disease” (United States Government as represented by the Department …, priority 2020, dated 2025).
Converted amounts (≈) assume the structure as drawn.

Key:
[1] = system: KLF15 reporter; test: KLF15 reporter activity in LPS-treated human podocytes (podocyte stress model); type: cell-based
Method: (§1) FIG. 10A-D show representative data illustrating the dose-response curve and EC50 (FIG. 10A), KLF15 reporter activity (FIG. 10B), and Renilla activity (cell viability) (FIG. 10C) in LPS-treated HP, and the therapeutic efficacy in abrogating albuminuria (biomarker of kidney disease) in LPS-treated mice (FIG. 10D).
(§2) After the synthesis of these novel analogues, a primary screening assay was conducted.

[2] = system: KLF15; test: KLF15 activity in ADR-treated cultured human podocytes; type: cell-based; settings: nonpermissive conditions 37° C., vs DMSO
[3] = system: human podocytes; test: Podocyte survival (Renilla, cell viability) after LPS treatment; type: cell-based; settings: LPS-treated human podocytes
Method: as §1, §2

[4] = system: KLF15 promoter mutated at the GR binding site; test: GR-mutant KLF15 reporter assay; type: cell-based, human
[5] = system: human podocytes; test: KLF15 and synaptopodin expression and actin stress fibers in LPS-treated human podocytes; type: cell-based; settings: LPS conditions, vs DMSO-treated podocytes
[6] = system: Db/db mice on the FVB/N background; test: db/db murine model of progressive diabetic kidney disease; type: in vivo; settings: subcutaneous minipump, 0.85 μg/day for 14 days
Text: Db/db mice on the FVB/N background were utilized as a murine model of progressive diabetic kidney disease (DKD), where there is significant podocyte injury and glomerulosclerosis.

[7] = system: KLF15 promoter; test: KLF15 promoter activity in human podocytes, KLF15 agonist combined with dexamethasone; type: cell-based; settings: for KLF15 promoter activity, combination with DEX: vs DEX 1 μM
[8] = system: LPS-treated mice; test: LPS-induced albuminuria murine model; type: in vivo; settings: vs DMSO
Method: Referring to FIG. 10D, C57BL/6 mice were treated with lipopolysaccharide (LPS) at dose of 10 μg/g in two divided doses 24 hours apart intraperitoneally to induce podocyte injury and albuminuria.

[9] = system: KLF15 promoter; test: KLF15 reporter human podocyte assay (HTS, dose-response, primary screening); type: cell-based; settings: for maximal KLF15 reporter activity: dose escalation, at similar concentrations to DEX; for EC50: dose-response curve, human podocytes, luciferase/renilla
Method: A stable reporter assay directed at KLF15 promoter region (4.3 kb region) was generated in human podocytes, a fragment of human KLF15 promoter upstream of the start codon, by amplifying and subcloning it into the firefly luciferase reporter plasmid (co-transfection with renilla to serve as internal controls). KLF15 promoter activity is measured as a ratio of luciferase to renilla activity. Using this reporter cell line, a cell-based HTS assay was developed using recently reported cell-seeding methodology specific to cultured podocytes (16).

[10] = system: IL-17R signaling
[11] = system: human podocytes; test: Cell viability (renilla activity, MTT assay) in ADR-treated cultured human podocytes; type: cell-based; settings: vs K-9, K-15, DEX, DMSO
[12] = system: human podocytes; test: Toxicity to human podocytes in primary screening assay (Renilla, cell viability); type: cell-based; settings: 1 μM, 24 hr
Method: as §2

[13] = system: Caco-2 cells (clone C2BBe1); test: Caco-2 permeability; type: in vitro ADME; settings: for Papp AVG / Papp R1 / Recovery: 5 μM, 120 minutes
Method: Caco-2 cells (clone C2BBe1) were obtained from American Type Culture Collection (Manassas, VA). Cell monolayers were grown to confluence on collagen-coated, microporous membranes in 12-well assay plates. Details of the plates and their certification are shown below. The permeability assay buffer was Hanks' balanced salt solution containing 10 mM HEPES and 15 mM glucose at a pH of 7.4. The buffer in the receiver chamber also contained 1% bovine serum albumin. The dosing solution concentration was 5 μM of lead compound in the assay buffer. Cell monolayers were dosed on the apical side (A-to-B) or basolateral side (B-to-A) and incubated at 37° C. with 5% CO2 in a humidified incubator. Samples were taken from the donor and receiver chambers at 120 minutes. Each determination was performed in duplicate. The flux of lucifer yellow was also measured post-experimentally for each monolayer to ensure no damage was inflicted to the cell monolayers during the flux period. […] The apparent permeability (Papp) and percent recovery were calculated and provided.

[14] = Stability in pH 7.4 phosphate buffer; type: physicochemical; settings: 37° C., 1 μM
Method: Studies were carried out in pH 7.4 phosphate buffer. The buffer was prepared by combining 50 mL of 0.2 M KH2PO4 with 150 mL of H2O, and then adjusting to pH 7.4 with 10 N NaOH. The buffer was adjusted to pH 7.4 prior to initiating the experiments. […] Aliquots of the DMSO solutions were dosed into 0.5 mL of matrix, which had been pre-warmed to 37° C., at a final lead compound concentration of 1 μM. Individual tubes were dosed for each timepoint. The vials were kept in a benchtop Thermomixer for the duration of the experiment. At each time point (0, 30, 60, and 120 minutes), an equal volume of acetonitrile was added to the appropriate tubes. Samples were stored at 4° C. until the end of the experiment. After the final time point was sampled, the plate was mixed and then centrifuged at 3,000 rpm for 10 minutes. Aliquots of the supernatant were removed, diluted 1:1 into distilled water, and analyzed by LC-MS/MS.

[15] = Equilibrium solubility in aqueous buffers; type: physicochemical
Method: The pH 2.0 buffer was prepared by combining 50 mL of 0.2 M KCl with 150 mL of H2O, and then adjusting to pH 2.0 with 10 N HCl. […] The pH 7.4 buffer was prepared by combining 50 mL of 0.2 M KH2PO4 with 150 mL of H2O, and then adjusting to pH 7.4 with 10 N NaOH. At least 0.3 mg of powder for each lead compound was combined with 1 mL of each buffer to make a ≥0.3 mg/mL mixture. These samples were shaken on a Thermomixer® overnight at room temperature. The samples were then centrifuged for 10 minutes at 14,000 rpm. The supernatant was sampled and diluted in duplicate 10-, 100-, 1,000-, and 10,000-fold into a mixture of 1:1 buffer:acetonitrile (ACN) prior to analysis. […] Standard concentrations ranged from 1.0 μM to 0.3 nM.

[16] = system: human liver microsomes; test: Stability in human liver microsomes; settings: human liver microsomes
Method: Mixed-gender human liver microsomes (Lot #1010420) were purchased from XenoTech. The reaction mixture, minus NADPH, was prepared as described below. […] The control compound, testosterone, was run simultaneously with the lead compounds in a separate reaction. The reaction mixture (without cofactor) was equilibrated in a shaking water bath at 37° C. for 3 minutes. The reaction was initiated by the addition of the cofactor, and the mixture was incubated in a shaking water bath at 37° C. Aliquots (100 μL) were withdrawn at 0, 10, 20, 30, and 60 minutes. Each lead compound and testosterone samples were immediately combined with 400 μL of ice-cold 50/50 acetonitrile (ACN)/H2O containing 0.1% formic acid and internal standard to terminate the reaction. The samples were then mixed and centrifuged to precipitate proteins. All samples were assayed by LC-MS/MS using electrospray ionization. The peak area response ratio (PARR) to internal standard was compared to the PARR at time 0 to determine the percent remaining at each time point. Half-lives and clearance were calculated using GraphPad software, fitting to a single-phase exponential decay equation.

[17] = C57BL/6 mice, LPS 10 μg/g, subcutaneous minipump 3.5 μg/day for 48 hours
[18] = pH 2, room temperature overnight
[19] = pH 4, room temperature overnight
[20] = pH 7.4, room temperature overnight

CSc1ccc(NC(=O)Nc2cc(C)ccn2)cc1 [Compound K-7]
KLF15 reporter activity after LPS treatment [1]: improved KLF15 reporter activity | KLF15 activity [2]: restored KLF15 activity | podocyte survival after LPS treatment [3]: improved | KLF15 reporter activity with KLF15 promoter mutated at the GR binding site [4]: induce KLF15 reporter activity independent of GR signaling | KLF15 expression [5]: restored | actin stress fiber formation [5]: restored | synaptopodin expression [5]: restored | podocyte effacement ([6]; PAS staining and TEM): attenuated podocyte effacement | glomerular basement membrane (GBM) thickness ([6]; quantified with ImageJ): reduced | glomerular volume ([6]; quantified with ImageJ): reduced glomerular volume | DEX dose required to induce KLF15 reporter activity ([7]; K-7 combined with DEX, dose-response curves): reduced the DEX dose required to induce KLF15 reporter activity | albuminuria ([8]; 5 mg/kg every 12 hours, LPS-proteinuric mice): significant improvement in albuminuria | albuminuria [8, 17]: significantly reduced albuminuria | maximal KLF15 reporter activity [9]: higher maximal KLF15 reporter activity | EC50 [9]: ~11.9 nM | genes involved in IL-17R and NF-κB signaling, chemokine/inflammatory signaling and fibrosis pathways (RNA-seq enrichment) ([10]; K-7 vs DMSO in LPS-treated podocytes): significant decrease | transcripts downstream of IL-17R signaling (CSF2, CSF3, CXCL2, CXCL3, CCL2, IL1β) ([10]; cultured human podocytes, LPS treatment): suppressed | cell viability (renilla activity and MTT assay) [11]: significantly improved

O=C(Nc1ccc2ccccc2c1)c1ccc(Cl)cc1Cl [Compound K-15]
KLF15 activity [2]: restored KLF15 activity | KLF15 reporter activity with KLF15 promoter mutated at the GR binding site [4]: induce KLF15 reporter activity independent of GR signaling | EC50 [9]: ~10.9 nM

CSc1ccc(NC(=O)Nc2ccc(C#N)cn2)cc1 [BT502]
KLF15 reporter activity after LPS treatment [1]: improved KLF15 reporter activity | toxicity to human podocytes [12]: no observed toxicity | podocyte survival after LPS treatment [3]: improved | Papp AVG ([13]; A-to-B): 15.2 10^−6 cm/s | Papp R1 ([13]; A-to-B): 14.6 10^−6 cm/s | Recovery ([13]; A-to-B): 63.1% | Papp AVG ([13]; B-to-A): 7.34 10^−6 cm/s | Papp R1 ([13]; B-to-A): 6.35 10^−6 cm/s | Recovery ([13]; B-to-A): 67.1% | Efflux Ratio ([13]; Caco-2): 0.481 | Significant Efflux ([13]; Caco-2): No (Significant Efflux: ER ≥ 2.0 and Papp (B-to-A) ≥ 1.0 × 10^−6 cm/s) | Absorption Potential Classification ([13]; Caco-2, from Papp (A-to-B)): High (Papp (A-to-B) ≥ 1.0 × 10^−6 cm/s: High) | Percent Remaining 0 min [14]: 100 | Percent Remaining 30 min [14]: 99.7 | Percent Remaining 60 min [14]: 87 | Percent Remaining 120 min [14]: 88.7 | Solubility AVG [15, 18]: 22.2 µM (≈ 6.31 µg/mL) | Solubility R1 [15, 18]: 21.8 µM (≈ 6.2 µg/mL) | Solubility AVG [15, 19]: 10.4 µM (≈ 2.96 µg/mL) | Solubility R1 [15, 19]: 10.4 µM (≈ 2.96 µg/mL) | Solubility AVG [15, 20]: 28.1 µM (≈ 7.99 µg/mL) | Solubility R1 [15, 20]: 28.4 µM (≈ 8.08 µg/mL) | KLF15 promoter activity, single agent ([7]; alone (DEX 1 μM), vs DMSO-treated human podocytes): significantly induced KLF15 promoter activity | KLF15 promoter activity, combination with DEX ([7]; compound 100 nM + DEX 0.5 μM): synergistic effect | KLF15 promoter activity, combination with DEX ([7]; compound 0.5 μM + DEX 0.5 μM): synergistic effect | albuminuria [8, 17]: significantly reduced albuminuria | KLF15 reporter activity, primary screening assay ([9]; 1 μM, 24 hr, vs DMSO): significantly induced KLF15 reporter activity | maximal KLF15 reporter activity [9]: higher maximal KLF15 reporter activity | Half-Life ([16]; 1 μM, 37° C.): 17 min | Percent Remaining 0 min ([16]; 1 μM, 37° C.): 100 | Percent Remaining 10 min ([16]; 1 μM, 37° C.): 63.9 | Percent Remaining 20 min ([16]; 1 μM, 37° C.): 45.3 | Percent Remaining 30 min ([16]; 1 μM, 37° C.): 29.6 | Percent Remaining 60 min ([16]; 1 μM, 37° C.): 8.53 | CLint (intrinsic clearance) ([16]; Clint = k/P): 0.0813 mL/min/mg protein

Nc1ccccc1-n1nc2ccc3ccccc3c2n1 [Compound K-9]
KLF15 activity [2]: restored KLF15 activity | KLF15 reporter activity with KLF15 promoter mutated at the GR binding site [4]: induce KLF15 reporter activity independent of GR signaling | EC50 [9]: ~76.2 nM
